Measured values published in patent US20120171121A1, “Rosette Nanotubes as Drug Delivery Agents” (Brown University, priority 2011, published 2012).
“Also recorded” adds a separate entry of the source.

Assay: Solubility observations in D2O / water
Type: physicochemical
Description: The supernatants were characterized by DOSY NMR and UV-Vis. ^1H-NMR was used to observe the amount of drug loaded into the RNTs at various time points. All the NMR experiments were conducted on a Varian Direct Drive 600 MHz spectrometer with a dual broadband probe. UV-vis spectra were recorded on an Agilent 8453. After this series of spectral analyses were completed, CD3OD was evaporated using a stream of nitrogen and replaced with the same volume of deuterated water (D2O).
Each solution (3 mL) was placed in a 1 cm×1 cm cuvette for UV-Vis experiments. In another series of experiments the solutions were prepared at the same concentration in D2O and analyzed by UV-Vis spectroscopy.

In the case of `C[C@@H]1C[C@H]2[C@@H]3CCC4=CC(=O)C=C[C@]4(C)[C@@]3(F)[C@@H](O)C[C@]2(C)[C@@]1(O)C(=O)CO` [DEX, dexamethasone], the solubility in water is reported as “insoluble; also recorded: precipitates in water”.
